Read-outs that look alike come from different tables or passages of the source.
Test: Plasma levels of 9-deoxo-16,16-dimethyl-9-methylene-PGE2 by radioimmunoassay after insertion of a suppository
Type: in vivo, Rhesus monkeys (Macaca mulatta)
Settings: for concentration at 0.25 h / concentration at 1 h / concentration at 1.5 h / concentration at 2 h / concentration at 3 h / concentration at 4 h / concentration at 6 h / concentration at 24 h / concentration at 0.5 h: rhesus monkey, plasma, 30 mg, read-out: Drug Levels
Description: A. Midtrimester pregnant female Rhesus monkeys (Macaca mulatta) are used. (The first day of menstrual bleeding is designated Day 1 of the menstrual cycle; the first day a female is placed with a male for breeding is designated Day 1 of pregnancy. Pregnancy is confirmed by abdominal palpation of the uterus.)
Blood samples are collected into heparinized syringes at specified times following insertion of a suppository in pregnant or non- pregnant monkeys. Plasma is extracted and assayed for 9-deoxo-16,16-dimethyl-9-methylene-PGE2 content by radioimmunoassay.
C. Six suppository lots are prepared (4), each containing 9- deoxo-16,16-dimethyl-9-methylene-PGE2 or its crystalline potassium salt (Examples 1 and 2). Two lots are made with Witepsol H15 alone as the suppository base, two with Witepsol HIS wax plus 2% colloidal silicon dioxide (CSD) and two with Witepsol H15 plus 2% CSD plus 10% triacetin. Suppositories are prepared using Witepsol H15 suppository wax. Free acid or potassium salt is dispersed in the hot wax using a homogenizer. Two percent colloidal silicon dioxide (CSD) is mixed in by further homogenization. In the third formulation, triacetin (10%) is added before the CSD and then homogenized for one minute. Suppositories are formed in 800 mg aluminum molds and are stored at 4°C until used.
D. The plasma levels of 9-deoxo-16,16-d1methy1-9-methy1ene-PGE2 in monkeys treated with 6 formulations containing either 9-deoxo-16,16-dimethyl-9-methylene-PGE2 free acid or potassium salt are shown in Tables 1-6. In general, higher blood levels are measured in pregnant Rhesus monkeys than in non-pregnant monkeys.

[1] = Monkey #1, 30 mg Free Acid in H15 Suppositories
[2] = Monkey #2, 30 mg Free Acid in H15 Suppositories
[3] = Monkey #3 (pregnant animal with uterine recording), 30 mg Free Acid in H15 Suppositories
[4] = Monkey #7, 30 mg Free Acid in H15 Plus 2% CSD Suppositories
[5] = Monkey #8, 30 mg Free Acid in H15 Plus 2% CSD Suppositories
[6] = Monkey #9 (pregnant animal with uterine recording), 30 mg Free Acid in H15 Plus 2% CSD Suppositories
[7] = Monkey #13, 30 mg Free Acid in H15 Plus 2% CSD + 10% Triacetin Suppositories
[8] = Monkey #14, 30 mg Free Acid in H15 Plus 2% CSD + 10% Triacetin Suppositories
[9] = Monkey #15 (pregnant animal with uterine recording), 30 mg Free Acid in H15 Plus 2% CSD + 10% Triacetin Suppositories

Structure (SMILES): C=C1C[C@@H](O)[C@H](/C=C/[C@@H](O)C(C)(C)CCCC)[C@H]1C/C=C\CCCC(=O)O [Free Acid, 9-deoxo-16,16-dimethyl-9-methylene-PGE2]
- bioavailability (drug plasma levels and uterine activity), free acid versus potassium salt (Rhesus monkeys, 30 mg (acid equivalents) per dose in three suppository formulations): equally bioavailable
- concentration at 0.25 h [1]: 5.14 ng/mL
- concentration at 1 h (Monkey #1, 1.0 Hours, 30 mg Free Acid in H15 Suppositories): 4.39 ng/mL
- concentration at 1.5 h [1]: 7.89 ng/mL
- concentration at 2 h (Monkey #1, 2.0 Hours, 30 mg Free Acid in H15 Suppositories): 4.16 ng/mL
- concentration at 3 h (Monkey #1, 3.0 Hours, 30 mg Free Acid in H15 Suppositories): 0.23 ng/mL
- concentration at 4 h (Monkey #1, 4.0 Hours, 30 mg Free Acid in H15 Suppositories): 7.43 ng/mL
- concentration at 6 h (Monkey #1, 6.0 Hours, 30 mg Free Acid in H15 Suppositories): 10.1 ng/mL
- concentration at 24 h (Monkey #1, 24.0 Hours, 30 mg Free Acid in H15 Suppositories): 7.68 ng/mL
- concentration at 0.5 h (Monkey #1, .5 Hours, 30 mg Free Acid in H15 Suppositories): 1.69 ng/mL
- concentration at 0.25 h [2]: 0.61 ng/mL
- concentration at 1.5 h [2]: 3.35 ng/mL
- concentration at 2 h (Monkey #2, 2.0 Hours, 30 mg Free Acid in H15 Suppositories): 5.56 ng/mL
- concentration at 3 h (Monkey #2, 3.0 Hours, 30 mg Free Acid in H15 Suppositories): 13 ng/mL
- concentration at 4 h (Monkey #2, 4.0 Hours, 30 mg Free Acid in H15 Suppositories): 14.7 ng/mL
- concentration at 6 h (Monkey #2, 6.0 Hours, 30 mg Free Acid in H15 Suppositories): 17.3 ng/mL
- concentration at 24 h (Monkey #2, 24.0 Hours, 30 mg Free Acid in H15 Suppositories): 4.97 ng/mL
- concentration at 0.25 h [3]: 142 ng/mL
- concentration at 1 h (Monkey #3 (pregnant animal with uterine recording), 1.0 Hours, 30 mg Free Acid in H15 Suppositories): 93.9 ng/mL
- concentration at 1.5 h [3]: 66.8 ng/mL
- concentration at 2 h (Monkey #3 (pregnant animal with uterine recording), 2.0 Hours, 30 mg Free Acid in H15 Suppositories): 60.8 ng/mL
- concentration at 3 h (Monkey #3 (pregnant animal with uterine recording), 3.0 Hours, 30 mg Free Acid in H15 Suppositories): 56.1 ng/mL
- concentration at 4 h (Monkey #3 (pregnant animal with uterine recording), 4.0 Hours, 30 mg Free Acid in H15 Suppositories): 35.7 ng/mL
- concentration at 6 h (Monkey #3 (pregnant animal with uterine recording), 6.0 Hours, 30 mg Free Acid in H15 Suppositories): 13.7 ng/mL
- concentration at 24 h (Monkey #3 (pregnant animal with uterine recording), 24.0 Hours, 30 mg Free Acid in H15 Suppositories): 5.67 ng/mL
- concentration at 0.5 h (Monkey #3 (pregnant animal with uterine recording), .5 Hours, 30 mg Free Acid in H15 Suppositories): 63.6 ng/mL
- concentration at 0.25 h [4]: 39.2 ng/mL
- concentration at 0.5 h (Monkey #7, 0.5 Hours, 30 mg Free Acid in H15 Plus 2% CSD Suppositories): 44.5 ng/mL
- concentration at 1 h (Monkey #7, 1.0 Hours, 30 mg Free Acid in H15 Plus 2% CSD Suppositories): 63.9 ng/mL
- concentration at 1.5 h [4]: 42.2 ng/mL
- concentration at 2 h (Monkey #7, 2 Hours, 30 mg Free Acid in H15 Plus 2% CSD Suppositories): 37 ng/mL
- concentration at 3 h (Monkey #7, 3 Hours, 30 mg Free Acid in H15 Plus 2% CSD Suppositories): 16.9 ng/mL
- concentration at 4 h (Monkey #7, 4 Hours, 30 mg Free Acid in H15 Plus 2% CSD Suppositories): 13.2 ng/mL
- concentration at 6 h (Monkey #7, 6 Hours, 30 mg Free Acid in H15 Plus 2% CSD Suppositories): 6.5 ng/mL
- concentration at 24 h (Monkey #7, 24 Hours, 30 mg Free Acid in H15 Plus 2% CSD Suppositories): 4.01 ng/mL
- concentration at 0.25 h [5]: 51.4 ng/mL
- concentration at 0.5 h (Monkey #8, 0.5 Hours, 30 mg Free Acid in H15 Plus 2% CSD Suppositories): 134 ng/mL
- concentration at 1 h (Monkey #8, 1.0 Hours, 30 mg Free Acid in H15 Plus 2% CSD Suppositories): 88.2 ng/mL
- concentration at 1.5 h [5]: 61.1 ng/mL
- concentration at 2 h (Monkey #8, 2 Hours, 30 mg Free Acid in H15 Plus 2% CSD Suppositories): 78.3 ng/mL
- concentration at 3 h (Monkey #8, 3 Hours, 30 mg Free Acid in H15 Plus 2% CSD Suppositories): 29.1 ng/mL
- concentration at 4 h (Monkey #8, 4 Hours, 30 mg Free Acid in H15 Plus 2% CSD Suppositories): 12.4 ng/mL
- concentration at 6 h (Monkey #8, 6 Hours, 30 mg Free Acid in H15 Plus 2% CSD Suppositories): 2.49 ng/mL
- concentration at 24 h (Monkey #8, 24 Hours, 30 mg Free Acid in H15 Plus 2% CSD Suppositories): 15.7 ng/mL
- concentration at 0.25 h [6]: 60.7 ng/mL
- concentration at 0.5 h (Monkey #9 (pregnant animal with uterine recording), 0.5 Hours, 30 mg Free Acid in H15 Plus 2% CSD Suppositories): 52.2 ng/mL
- concentration at 1 h (Monkey #9 (pregnant animal with uterine recording), 1.0 Hours, 30 mg Free Acid in H15 Plus 2% CSD Suppositories): 63.1 ng/mL
- concentration at 1.5 h [6]: 62.8 ng/mL
- concentration at 2 h (Monkey #9 (pregnant animal with uterine recording), 2 Hours, 30 mg Free Acid in H15 Plus 2% CSD Suppositories): 62.9 ng/mL
- concentration at 3 h (Monkey #9 (pregnant animal with uterine recording), 3 Hours, 30 mg Free Acid in H15 Plus 2% CSD Suppositories): 40.2 ng/mL
- concentration at 4 h (Monkey #9 (pregnant animal with uterine recording), 4 Hours, 30 mg Free Acid in H15 Plus 2% CSD Suppositories): 57.8 ng/mL
- concentration at 6 h (Monkey #9 (pregnant animal with uterine recording), 6 Hours, 30 mg Free Acid in H15 Plus 2% CSD Suppositories): 32 ng/mL
- concentration at 24 h (Monkey #9 (pregnant animal with uterine recording), 24 Hours, 30 mg Free Acid in H15 Plus 2% CSD Suppositories): 21 ng/mL
- concentration at 0.25 h [7]: 12.6 ng/mL
- concentration at 0.5 h (Monkey #13, 0.5 Hours, 30 mg Free Acid in H15 Plus 2% CSD + 10% Triacetin Suppositories): 9.25 ng/mL
- concentration at 1 h (Monkey #13, 1 Hours, 30 mg Free Acid in H15 Plus 2% CSD + 10% Triacetin Suppositories): 2.8 ng/mL
- concentration at 1.5 h [7]: 3.09 ng/mL
- concentration at 2 h (Monkey #13, 2 Hours, 30 mg Free Acid in H15 Plus 2% CSD + 10% Triacetin Suppositories): 5.46 ng/mL
- concentration at 3 h (Monkey #13, 3 Hours, 30 mg Free Acid in H15 Plus 2% CSD + 10% Triacetin Suppositories): 15.1 ng/mL
- concentration at 4 h (Monkey #13, 4 Hours, 30 mg Free Acid in H15 Plus 2% CSD + 10% Triacetin Suppositories): 22.5 ng/mL
- concentration at 6 h (Monkey #13, 6 Hours, 30 mg Free Acid in H15 Plus 2% CSD + 10% Triacetin Suppositories): 23.8 ng/mL
- concentration at 24 h (Monkey #13, 24 Hours, 30 mg Free Acid in H15 Plus 2% CSD + 10% Triacetin Suppositories): 26 ng/mL
- concentration at 0.25 h [8]: 18.8 ng/mL
- concentration at 0.5 h (Monkey #14, 0.5 Hours, 30 mg Free Acid in H15 Plus 2% CSD + 10% Triacetin Suppositories): 36 ng/mL
- concentration at 1 h (Monkey #14, 1 Hours, 30 mg Free Acid in H15 Plus 2% CSD + 10% Triacetin Suppositories): 25.1 ng/mL
- concentration at 1.5 h [8]: 32 ng/mL
- concentration at 2 h (Monkey #14, 2 Hours, 30 mg Free Acid in H15 Plus 2% CSD + 10% Triacetin Suppositories): 28.7 ng/mL
- concentration at 3 h (Monkey #14, 3 Hours, 30 mg Free Acid in H15 Plus 2% CSD + 10% Triacetin Suppositories): 20.2 ng/mL
- concentration at 4 h (Monkey #14, 4 Hours, 30 mg Free Acid in H15 Plus 2% CSD + 10% Triacetin Suppositories): 16.6 ng/mL
- concentration at 6 h (Monkey #14, 6 Hours, 30 mg Free Acid in H15 Plus 2% CSD + 10% Triacetin Suppositories): 16.2 ng/mL
- concentration at 24 h (Monkey #14, 24 Hours, 30 mg Free Acid in H15 Plus 2% CSD + 10% Triacetin Suppositories): 12.9 ng/mL
- concentration at 0.25 h [9]: 119 ng/mL
- concentration at 0.5 h (Monkey #15 (pregnant animal with uterine recording), 0.5 Hours, 30 mg Free Acid in H15 Plus 2% CSD + 10% Triacetin Suppositories): 154 ng/mL
- concentration at 1 h (Monkey #15 (pregnant animal with uterine recording), 1 Hours, 30 mg Free Acid in H15 Plus 2% CSD + 10% Triacetin Suppositories): 154 ng/mL
- concentration at 1.5 h [9]: 26.8 ng/mL
- concentration at 2 h (Monkey #15 (pregnant animal with uterine recording), 2 Hours, 30 mg Free Acid in H15 Plus 2% CSD + 10% Triacetin Suppositories): 44.8 ng/mL
- concentration at 3 h (Monkey #15 (pregnant animal with uterine recording), 3 Hours, 30 mg Free Acid in H15 Plus 2% CSD + 10% Triacetin Suppositories): 65.9 ng/mL
- concentration at 4 h (Monkey #15 (pregnant animal with uterine recording), 4 Hours, 30 mg Free Acid in H15 Plus 2% CSD + 10% Triacetin Suppositories): 22.1 ng/mL
- concentration at 6 h (Monkey #15 (pregnant animal with uterine recording), 6 Hours, 30 mg Free Acid in H15 Plus 2% CSD + 10% Triacetin Suppositories): 13 ng/mL
- concentration at 24 h (Monkey #15 (pregnant animal with uterine recording), 24 Hours, 30 mg Free Acid in H15 Plus 2% CSD + 10% Triacetin Suppositories): 2.76 ng/mL

Source: patent EP0097439A2, “A crystalline prostaglandin salt” (THE UPJOHN COMPANY, priority 1982, dated 1984)
